The record followed here is US8227512B2, “Pharmaceutical composition containing daurinol for the prevention and treatment of cancers” (Korea Institute of Science and Technology, priority 2007, dated 2012).

Molecules are shown by their SMILES. Values joined by “and” are separate entries in the source; they are usually repeats but may differ in a detail not shown here. Equal values may be shown once. Read-outs that look alike come from different tables or passages of the source.

The subject of assay [1] is HCT116 cells. Description: Apoptosis by annexin V-FITC / propidium iodide co-staining, flow cytometry. In kind it is cell-based, human. The conditions noted are these: HCT116, 5 μM daurinol, 24 and 48 hours (FIGS. 7 and 8). The text has this:
The induction of apoptosis by daurinol obtained by the method of Example 2 was thoroughly examined by co-staining with annexin V—FITC (fluorescein isothiocyanate) and propidium iodide.
In normal cells, phosphatidylserine, one of the cell membrane forming phospholipids, is always heading toward inside of the cell. When early apoptosis is induced, this phosphatidylserine is exposed outside of the cell. Thus, the apoptotic cells can be detected by using green fluorescence labeled annexin V that is selectively bound to phosphatidylserine.
HCT116 cells were inoculated in 60×15 cm culture dishes at the concentration of 5×10^5 cells per dish, followed by culture for 24 hours. Daurinol dissolved in DMSO (Dimethyl Sulfoxide) was treated thereto at the concentrations of 5 μM for 24 and 48 hours. The cells were harvested and washed with DPBS (Dulbecco's Phosphate Buffered Saline). 1×10^6 cells were stained with annexin V-FITC (fluorescein isothiocyanate) and propidium iodide for 15 minutes, and then were analyzed by flow cytometry.

Assay [2] relates to DLD-1. Description: Cell cycle analysis, propidium iodide staining, flow cytometry. In kind it is cell-based, human. The conditions noted are these: for Cell cycle ratio, sub G0/G1 ratio (index for apoptosis): 48 hours (control 0); for Cell cycle ratio, S phase ratio: 48 hours (control 29.6). How it is done:
(§1) Human colon cancer cell lines HCT116 and DLD-1 were inoculated in 60×15 cm culture dishes at the concentration of 5×10^5 cells per dish, followed by culture for 24 hours. Daurinol dissolved in DMSO (Dimethyl Sulfoxide) was treated thereto at the concentrations of 5-20 μM for 24, 48 and 72 hours, respectively. The cells were harvested and washed with DPBS (Dulbecco's Phosphate Buffered Saline), followed by fixation in 70% ethanol at −20° C. for more than one day. The cells were washed again with DPBS and stained with propidium iodide for 20 minutes, and then were analyzed by flow cytometry. The propidium iodide selectively stains intracellular DNA. So, the fluorescence by propidium iodide and cell numbers was used as variants to make a graph, showing the pattern of cell cycle. According to this graph, cell cycle blocking activity of daurinol and apoptosis induced by daurinol could be confirmed.

The subject of assay [3] is HCT116. Described as above. In kind it is cell-based, human. The conditions noted are these: for Cell cycle ratio, sub G0/G1 ratio (index for apoptosis): 48 hours (control 0.1); for Cell cycle ratio, S phase ratio: 48 hours (control 33.7). The method, then:
as §1

In assay [4] the test system is DLD-1. The experiment in a line: MTT cancer cell growth inhibition by daurinol. In kind it is cell-based. As to conditions: Homo sapiens, read-out: IC50 (concentration for 50% of cell growth inhibition). How it is done: (§2) Daurinol obtained by the method of Example 2 was treated to human colon cancer cell lines HCT116 (American type of cell culture, ATCC) and DLD-1 (American type of cell culture, ATCC) to investigate the cancer cell growth inhibitory effect. The cell lines were cultured in MEM supplemented with 10% fetal bovine serum and antibiotics (penicillin and streptomycin) in a 37° C., 5% CO2 incubator. Sub-culture was performed every 2-3 days.
(§3) HCT116 and DLD-1 were inoculated in a 96-well plate at the concentration of 5×10^3 cells/well, followed by culture for 24 hours. Daurinol dissolved in DMSO (Dimethyl Sulfoxide) was treated thereto at different concentrations of 0.1-200 μg/ml for 24 and 48 hours. MTT reagent (methylthiazol-2-yl-2.5 diphenyl tetrazolium bromide) was treated thereto. 1-3 hours later, OD450 was measured to investigate cell growth.

The test system of assay [5] is HCT116. Description: MTT cancer cell growth inhibition by daurinol. As to conditions: Homo sapiens, HCT-116, read-out: IC50 (concentration for 50% of cell growth inhibition). In kind it is cell-based. The method, then: as §2, §3
In assay [6] the test system is HCT116 cells. Description: Morphological changes under DIC light microscope. As to conditions: HCT116, 5 μM daurinol. In kind it is cell-based, human. How it is done: Daurinol obtained by the method of Example 2 was treated to cancer cells and then morphological changes of the cancer cells were observed under DIC (differential interference contrast) light microscope.
HCT116 cells were inoculated in 60×15 cm culture dishes at the concentration of 5×10^5 cells per dish, followed by culture for 24 hours. 5 μM of daurinol dissolved in DMSO (Dimethyl Sulfoxide) was treated thereto, followed by culture for 12, 24, 48, 72 and 96 hours respectively. Morphological changes of the cells were observed under DIC light microscope.

In the case of `COc1cc2c(-c3ccc4c(c3)OCO4)c3c(cc2cc1O)COC3=O` [daurinol], in the assay on HCT116 cells [1], the “Apoptosis (annexin V-FITC positive cells) versus control” value is “significantly induced”. In addition, the “Cell cycle ratio, sub G0/G1 ratio (index for apoptosis)” value worked out at 0.3% in the assay with DLD-1 [2] (DLD-1, 5 μM daurinol); 0.6% with DLD-1 [2] (DLD-1, 10 μM daurinol); 1.4% in the assay with DLD-1 [2] (DLD-1, 20 μM daurinol); 3.8% in the assay with HCT116 [3] (HCT116, 5 μM daurinol); 4.6% in the assay with HCT116 [3] (HCT116, 10 μM daurinol); 9.4% in the assay with HCT116 [3] (HCT116, 20 μM daurinol). Besides, the “Cell cycle ratio, S phase ratio” value was determined as 68.6% in the assay with DLD-1 [2] (DLD-1, 5 μM daurinol); 64.1% with DLD-1 [2] (DLD-1, 10 μM daurinol); 68.0% with DLD-1 [2] (DLD-1, 20 μM daurinol); 52.8% in the assay with HCT116 [3] (HCT116, 5 μM daurinol); 61.1% with HCT116 [3] (HCT116, 10 μM daurinol); 60.8% with HCT116 [3] (HCT116, 20 μM daurinol). Moreover, the “S phase of cell cycle versus untreated control” value with HCT116 [3] (HCT116, 5 μM daurinol, 24, 48 and 72 hours (FIG. 5)) is on record as “significantly increased”. For the same compound, in the assay on HCT116 [3] (HCT116, 5 μM daurinol, different treatment times (FIG. 6)), the “sub G0/G1 ratio, the index for apoptosis” value is “significantly increased”. In addition, the IC50 in the assay on DLD-1 [4] (DLD-1, 24 hours treatment) was 10.5 µg/mL and 30 µM; in the assay on DLD-1 [4] (DLD-1, 48 hours treatment) it was 1.4 µg/mL and 4.08 µM; with HCT116 [5] (HCT116, 24 hours treatment), 4.4 µg/mL and 12.4 µM; with HCT116 [5] (HCT116, 48 hours treatment), 0.7 µg/mL and 2.07 µM. Also, the “Morphological changes of the cells” value was “the boundary of the cells became obvious” in the assay on HCT116 cells [6] (after 24 hours (FIG. 9)) and “started to detach from the bottom of culture dish” in the assay with HCT116 cells [6] (after 48 hours (FIG. 9)).
